In PMC9178925 (Biochemical pharmacology, 2022):
Where “and” joins values, the source holds several entries; their conditions need not be identical. Equal entries are not always repeated.

How the values were obtained:
α1β2(N265S)γ2L GABAAR = α1β2(N265S)γ2L GABAAR (Rattus norvegicus, UniProt P62813+P63138, N289S); format: cell-based, rat (β2 rat or human); settings: β2(N265S)
α1β2(D282A)γ2L GABAAR = α1β2(D282A)γ2L GABAAR (Rattus norvegicus, UniProt P62813+P63138, D306A); format: cell-based, rat (β2 rat or human); settings: β2(D282A)
α1β2(N265S)γ2S GABAAR = α1β2(N265S)γ2S GABAAR (Rattus norvegicus, UniProt P62813+P63138, N289S); assay: Two-electrode voltage clamp, potentiation of low GABA currents in oocytes; format: cell-based, rat (β2 rat or human); settings: 100 μM (+)-catharanthine, ~EC5 GABA
α1(Q241L)β2γ2L GABAAR = α1(Q241L)β2γ2L GABAAR (Rattus norvegicus, UniProt P62813+P63138, Q268L); assay: as above; format: cell-based, rat (β2 rat or human)
[1] = system: β2/3-containing GABAARs vs β1-containing GABAARs; assay: GABAAR subtype selectivity of potentiation; format: cell-based; settings: low, subsaturating GABA
α2β3γ2S GABAAR [2] = molecular target: α2β3γ2S GABAAR (UniProt P47869+P63079); assay: Two-electrode voltage clamp, potentiation of EC5 GABA currents in oocytes; format: cell-based, human α2, rat β3 and γ2S
α1β2γ2L GABAAR [3] = molecular target: T1, α1β2γ2L GABAAR (Rattus norvegicus, UniProt P62813+P63138); assay: Two-electrode voltage clamp, concentration-response and mechanistic; format: cell-based, rat (β2 rat or human)
α1β1γ2S GABAAR = α1β1γ2S GABAAR (Rattus norvegicus, UniProt P15431+P62813); format: cell-based; settings: 100 μM (+)-catharanthine, % over control EC5 GABA; mean ± SEM
α1β2(R269A)γ2L GABAAR = α1β2(R269A)γ2L GABAAR (Rattus norvegicus, UniProt P62813+P63138, R293A); format: cell-based, rat (β2 rat or human); settings: β2(R269A)
α1β2γ2S GABAAR = α1β2γ2S GABAAR (Rattus norvegicus, UniProt P62813+P63138); format: cell-based, rat (β2 rat or human)
α1β2(K279A)γ2L GABAAR = α1β2(K279A)γ2L GABAAR (Rattus norvegicus, UniProt P62813+P63138, K303A); format: cell-based, rat (β2 rat or human); settings: β2(K279A)
α2β1γ2S GABAAR = α2β1γ2S GABAAR (UniProt P15431+P47869); format: cell-based, human α2, rat β1 and γ2S; settings: 100 μM (+)-catharanthine, % over control EC5 GABA; mean ± SEM
α2β3γ2S GABAAR [4] = assay: Two-electrode voltage clamp, potentiation of EC5 GABA currents in oocytes; format: cell-based, human α2, rat β and γ2S
α1β2γ2L GABAAR [5] = molecular target: T1, α1β2γ2L GABAAR; assay: Functional competition assay; settings: for potentiation of GABA-activated receptors: n = 5 oocytes
α1β3(M286C)γ2S GABAAR = α1β3(M286C)γ2S GABAAR (Rattus norvegicus, UniProt P62813+P63079, M311C); assay: Two-electrode voltage clamp, potentiation of low GABA currents in oocytes; format: cell-based; settings: 100 μM (+)-catharanthine, ~EC5 GABA, n = 5 oocytes
α1β3γ2S GABAAR = α1β3γ2S GABAAR (Rattus norvegicus, UniProt P62813+P63079); format: cell-based
[6] = molecular target: α1β2(K279A+D282A)γ2L GABAAR (Rattus norvegicus, UniProt P62813+P63138, D306A/K303A); format: cell-based, rat (β2 rat or human); settings: β2(K279A+D282A)
[7] = read-out: KCath (estimated affinity of (+)-catharanthine for the resting receptor), low GABA (PA ~0.2), Eq. 1, NCath = 2, mean ± SEM, 5 oocytes
[8] = calculated from cCath, NCath = 2
[9] = low GABA (PA ~0.2), Eq. 1, NCath = 2
[10] = 100 μM (+)-catharanthine, % over control EC5 GABA, mean ± SEM
[11] = absence of GABA, Hill equation fit
[12] = 1 μM R(+)-etomidate + 10 μM (+)-catharanthine
[13] = GABA + 3 μM loreclezole + 30 μM (+)-catharanthine

CCC1=C[C@@H]2CN3CCc4c([nH]c5ccccc45)[C@@](C(=O)OC)(C2)[C@@H]13 [(+)-catharanthine, (+)-3,4-didehydrocoronaridine]
Kd (α1β2(N265S)γ2L GABAAR; [7]): 23.9 ± 2.5 µM
ΔG (α1β2(N265S)γ2L GABAAR; [8]): -1.12 ± 0.07 kcal/mol
cCath (ratio of the affinities for the active and resting states) (α1β2(N265S)γ2L GABAAR; [9]): 0.390±0.021
EC50 (α1β2(N265S)γ2L GABAAR; low GABA, Hill equation fit): 17.7 ± 1.4 µM
nH (α1β2(N265S)γ2L GABAAR; low GABA, Hill equation fit): 1.53±0.13
Kd (α1β2(D282A)γ2L GABAAR; [7]): 7.1 ± 2.8 µM
ΔG (α1β2(D282A)γ2L GABAAR; [8]): -0.55 ± 0.07 kcal/mol
cCath (ratio of the affinities for the active and resting states) (α1β2(D282A)γ2L GABAAR; [9]): 0.630±0.039
EC50 (α1β2(D282A)γ2L GABAAR; low GABA, Hill equation fit): 7.7 ± 1.6 µM
nH (α1β2(D282A)γ2L GABAAR; low GABA, Hill equation fit): 1.88±0.39
potentiation of the response to low GABA (α1β2(N265S)γ2S GABAAR): 224 ± 13%
potentiation of GABA-evoked currents (α1(Q241L)β2γ2L GABAAR; 30 μM (+)-catharanthine, 30 μM GABA, n = 6 oocytes): 231 ± 33%
efficacy of potentiation at β2/3-containing relative to β1-containing GABAARs [1]: 2.4–3.5 times
(+)-Catharanthine maximal potentiation (%) (α2β3γ2S GABAAR [2]; 100 μM (+)-catharanthine, % over control EC5 GABA, second line printed α2β3γ2S): 728 ± 120 (4) %
(+)-Catharanthine relative potentiation (αxβ2/3γ2S)/(αxβ1γ2S) (α2β3γ2S GABAAR [2]; second line printed α2β3γ2S vs α2β1γ2S, 100 μM): 3.5
maximal efficacy [(PAmax/PAmin)-1 × 100] / maximum potentiation (α1β2γ2L GABAAR [3]; 2 μM GABA, Hill equation fit, % of control): 341%
potentiation of GABA-evoked currents (α1β2γ2L GABAAR [3]; 30 μM (+)-catharanthine, 2 μM GABA, n = 6 oocytes): 372 ± 72%
EC50 (α1β2γ2L GABAAR [3]; read-out: EC50 for potentiation, wild-type, 2 μM GABA, Hill equation fit): 13.5 ± 1.8 µM
Kd (α1β2γ2L GABAAR [3]; read-out: KCath (estimated affinity of (+)-catharanthine for the resting receptor), wild-type, 2 μM GABA background, fit to Eq. 1, NCath constrained to 2, mean ± SEM, 5 oocytes): 29.4 ± 6 µM
cCath (ratio of the affinities for the active and resting states) (α1β2γ2L GABAAR [3]; wild-type, 2 μM GABA background, fit to Eq. 1, NCath constrained to 2): 0.231 and 0.231±0.023
nH (Hill coefficient) (α1β2γ2L GABAAR [3]; wild-type, 2 μM GABA, Hill equation fit): 1.66 and 1.66±0.33
ΔG (free energy change to stabilize the active state) (α1β2γ2L GABAAR [3]; wild-type, calculated from cCath as NCathRTln(cCath), NCath = 2): -1.76 kcal/mol and -1.76 ± 0.12 kcal/mol
(+)-Catharanthine maximal potentiation (%) (α1β1γ2S GABAAR): 269 ± 42 (4) %
Kd (α1β2(R269A)γ2L GABAAR; [7]): 18.8 ± 3.3 µM
ΔG (α1β2(R269A)γ2L GABAAR; [8]): -1.53 ± 0.11 kcal/mol
cCath (ratio of the affinities for the active and resting states) (α1β2(R269A)γ2L GABAAR; [9]): 0.279±0.022
EC50 (α1β2(R269A)γ2L GABAAR; low GABA, Hill equation fit): 9.3 ± 1.2 µM
nH (α1β2(R269A)γ2L GABAAR; low GABA, Hill equation fit): 1.29±0.10
(+)-Catharanthine maximal potentiation (%) (α1β2γ2S GABAAR; [10]): 739 ± 110 (11) %
potentiation of the response to low GABA (α1β2γ2S GABAAR; 100 μM (+)-catharanthine, ~EC5 GABA): 1099 ± 163%
(+)-Catharanthine relative potentiation (αxβ2/3γ2S)/(αxβ1γ2S) (α1β2γ2S GABAAR; α1β2γ2S vs α1β1γ2S, 100 μM): 2.7
Kd (α1β2(K279A)γ2L GABAAR; read-out: KCath (estimated affinity of (+)-catharanthine for the resting receptor), direct activation in the absence of GABA (PA,constitutive 0.22), Eq. 1, NCath = 2, 5 oocytes): 17.8 ± 1.6 µM
cCath (ratio of the affinities for the active and resting states) (α1β2(K279A)γ2L GABAAR; absence of GABA, Eq. 1, NCath = 2): 0.421±0.034
EC50 (α1β2(K279A)γ2L GABAAR; [11]): 13.6 ± 2 µM
nH (α1β2(K279A)γ2L GABAAR; [11]): 1.08±0.11
ΔG (α1β2(K279A)γ2L GABAAR; [8]): -1.04 ± 0.10 kcal/mol
(+)-Catharanthine maximal potentiation (%) (α2β1γ2S GABAAR): 211 ± 26 (5) %
(+)-Catharanthine maximal potentiation (%) (α2β3γ2S GABAAR [4]; 100 μM (+)-catharanthine, % over control EC5 GABA, first line printed α2β3γ2S): 691 ± 65 (5) %
(+)-Catharanthine relative potentiation (αxβ2/3γ2S)/(αxβ1γ2S) (α2β3γ2S GABAAR [4]; first line printed α2β3γ2S vs α2β1γ2S, 100 μM): 3.3
predicted PA, model with overlapping sites (Eq. 2) (α1β2γ2L GABAAR [5]; [12]): 0.024 ± 0.006
predicted PA, model with unique non-overlapping sites (Eq. 1) (α1β2γ2L GABAAR [5]; [12]): 0.115 ± 0.031
PA of peak response, observed (α1β2γ2L GABAAR [5]; 10 μM (+)-catharanthine coapplied with 1 μM R(+)-etomidate, 7 oocytes): 0.086 ± 0.024
potentiation of GABA-activated receptors (α1β2γ2L GABAAR [5]; 10 μM (+)-catharanthine, 0.05 μM GABA): 1600 ± 400%
potentiation of the peak response elicited by R(+)-etomidate (α1β2γ2L GABAAR [5]; 10 μM (+)-catharanthine, 1 μM R(+)-etomidate, n = 7 oocytes): 160 ± 24%
potentiation of the peak response to pregnanolone (α1β2γ2L GABAAR [5]; 10 μM (+)-catharanthine, 2 μM pregnanolone, five oocytes): 2200 ± 400%
potentiation of GABA-activated receptors (α1β2γ2L GABAAR [5]; 10 μM (+)-catharanthine, 1–2 μM GABA): 353 ± 68%
PA of the peak response, observed (α1β2γ2L GABAAR [5]; 0.2–0.5 μM GABA + 3 μM loreclezole + 30 μM (+)-catharanthine): 0.21 ± 0.13
PA of the peak response (α1β2γ2L GABAAR [5]; 0.2–0.5 μM GABA + 30 μM (+)-catharanthine): 0.16 ± 0.11
predicted PA, distinct site model (α1β2γ2L GABAAR [5]; [13]): 0.62 ± 0.17
predicted PA, same site model (α1β2γ2L GABAAR [5]; [13]): 0.19 ± 0.11
potentiation of the response to low GABA (α1β3(M286C)γ2S GABAAR): 651 ± 115%
(+)-Catharanthine maximal potentiation (%) (α1β3γ2S GABAAR; [10]): 646 ± 64 (10) %
potentiation of the response to low GABA (α1β3γ2S GABAAR; 100 μM (+)-catharanthine, ~EC5 GABA, n = 6 oocytes): 667 ± 111%
(+)-Catharanthine relative potentiation (αxβ2/3γ2S)/(αxβ1γ2S) (α1β3γ2S GABAAR; α1β3γ2S vs α1β1γ2S, 100 μM): 2.4
ΔG [6, 8]: −0.19 ± 0.01 kcal/mol and −0.19±0.01nd kcal/mol
cCath (ratio of the affinities for the active and resting states) ([6]; pooled data, best-fit ± standard error of the fit): 0.848±0.010nd
EC50 ([6]; pooled data, Hill equation fit): 15.8 ± 5.9 µM
nH ([6]; pooled data, Hill equation fit): 1.30

NCCCC(=O)O [GABA, γ-aminobutyric acid, reference compound]
PA (probability of being in the active state) of peak response (α1(Q241L)β2γ2L GABAAR; 30 μM GABA alone): 0.19 ± 0.05
PA (probability of being in the active state) of peak response (α1β2γ2L GABAAR [3]; 2 μM GABA alone, normalized to 1 mM GABA + 50 μM propofol): 0.18 and 0.17 ± 0.02 and 0.15 ± 0.02
PA of peak response (α1β2γ2L GABAAR [3]; 10 μM GABA alone, n = 6 oocytes): 0.26 ± 0.03
PA of peak response (α1β2γ2L GABAAR [5]; 0.05 μM GABA alone): 0.004 ± 0.001
PA of peak response (α1β2γ2L GABAAR [5]; 0.75 μM GABA alone): 0.051 ± 0.018
mean PA of the peak response (α1β2γ2L GABAAR [5]; 0.2–0.5 μM GABA alone, n = 7 oocytes): 0.009 ± 0.008
PA of peak response (α1β2γ2L GABAAR [5]; 1–2 μM GABA alone): 0.030 ± 0.007
